Assay results reported in ChEMBL document CHEMBL3352020, “Targeting matrix metalloproteinases: exploring the dynamics of the s1' pocket in the design of selective, small molecule inhibitors” (J Med Chem, 2014).

What was measured:
Neutrophil collagenase = Neutrophil collagenase (Homo sapiens, UniProt P22894); experiment: Inhibition of MMP8 (unknown origin)
Stromelysin-1 = Stromelysin-1 (Homo sapiens, UniProt P08254); experiment: Inhibition of MMP3 (unknown origin)
Interstitial collagenase = biological target: T1, Interstitial collagenase (Homo sapiens, UniProt P03956); experiment: Inhibition of MMP1 (unknown origin)
T1 sequence (P03956 whole entry): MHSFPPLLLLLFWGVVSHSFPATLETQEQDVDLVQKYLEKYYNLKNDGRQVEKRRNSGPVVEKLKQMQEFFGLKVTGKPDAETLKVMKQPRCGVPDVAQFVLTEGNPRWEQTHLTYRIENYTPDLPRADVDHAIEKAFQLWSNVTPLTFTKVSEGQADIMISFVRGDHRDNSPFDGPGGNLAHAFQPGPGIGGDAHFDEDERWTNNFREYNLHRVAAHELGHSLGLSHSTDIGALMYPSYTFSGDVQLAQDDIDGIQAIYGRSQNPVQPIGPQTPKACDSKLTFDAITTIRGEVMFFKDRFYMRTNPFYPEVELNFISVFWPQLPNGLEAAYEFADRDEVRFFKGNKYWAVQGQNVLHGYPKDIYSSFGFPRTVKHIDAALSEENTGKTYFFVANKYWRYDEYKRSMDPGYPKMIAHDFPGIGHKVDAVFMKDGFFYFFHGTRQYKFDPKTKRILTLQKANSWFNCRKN

[1] = biological target: Matrix metalloproteinase-9 (Homo sapiens, UniProt P14780); experiment: Inhibition of MMP9 (unknown origin)
Matrix metalloproteinase-9, sequence (P14780 whole entry): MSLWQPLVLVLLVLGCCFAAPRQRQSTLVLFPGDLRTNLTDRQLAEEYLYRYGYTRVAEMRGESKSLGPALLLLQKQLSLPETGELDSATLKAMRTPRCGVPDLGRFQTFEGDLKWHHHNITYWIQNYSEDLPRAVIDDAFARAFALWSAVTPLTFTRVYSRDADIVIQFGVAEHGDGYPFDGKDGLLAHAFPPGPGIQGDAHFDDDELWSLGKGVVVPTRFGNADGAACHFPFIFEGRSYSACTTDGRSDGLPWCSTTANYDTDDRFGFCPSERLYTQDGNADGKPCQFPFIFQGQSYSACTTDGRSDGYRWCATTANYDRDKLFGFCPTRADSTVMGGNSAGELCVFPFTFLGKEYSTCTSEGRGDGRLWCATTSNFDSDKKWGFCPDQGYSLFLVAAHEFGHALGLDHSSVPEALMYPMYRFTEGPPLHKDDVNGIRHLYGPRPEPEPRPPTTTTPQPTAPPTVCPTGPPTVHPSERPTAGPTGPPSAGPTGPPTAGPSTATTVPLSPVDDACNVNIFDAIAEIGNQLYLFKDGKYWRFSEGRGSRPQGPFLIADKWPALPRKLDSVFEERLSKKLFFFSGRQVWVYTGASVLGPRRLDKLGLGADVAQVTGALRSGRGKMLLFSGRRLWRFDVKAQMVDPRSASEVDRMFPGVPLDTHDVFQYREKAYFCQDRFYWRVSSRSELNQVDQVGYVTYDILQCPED

[2] = biological target: 72 kDa type IV collagenase (Homo sapiens, UniProt P08253); experiment: Inhibition of MMP2 (unknown origin)
72 kDa type IV collagenase, sequence (P08253 whole entry): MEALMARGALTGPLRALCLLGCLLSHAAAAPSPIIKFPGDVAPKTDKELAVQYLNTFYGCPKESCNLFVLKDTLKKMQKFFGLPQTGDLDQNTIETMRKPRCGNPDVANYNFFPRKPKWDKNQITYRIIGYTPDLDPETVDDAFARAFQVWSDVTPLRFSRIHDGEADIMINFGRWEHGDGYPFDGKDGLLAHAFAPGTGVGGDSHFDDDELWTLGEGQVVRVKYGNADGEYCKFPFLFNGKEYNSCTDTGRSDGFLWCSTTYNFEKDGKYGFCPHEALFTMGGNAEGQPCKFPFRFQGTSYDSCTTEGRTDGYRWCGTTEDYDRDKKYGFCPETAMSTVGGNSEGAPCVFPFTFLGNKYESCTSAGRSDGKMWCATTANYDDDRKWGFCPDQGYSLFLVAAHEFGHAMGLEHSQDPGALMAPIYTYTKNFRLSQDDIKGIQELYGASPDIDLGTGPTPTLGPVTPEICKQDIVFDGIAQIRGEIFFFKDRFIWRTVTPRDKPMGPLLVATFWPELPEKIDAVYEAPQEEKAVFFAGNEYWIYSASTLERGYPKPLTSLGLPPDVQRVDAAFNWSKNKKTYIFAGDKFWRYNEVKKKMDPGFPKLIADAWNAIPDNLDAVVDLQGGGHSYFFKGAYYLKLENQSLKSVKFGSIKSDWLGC

[3] = biological target: T2, Matrix metalloproteinase-17 (Homo sapiens, UniProt Q9ULZ9); experiment: Inhibition of MMP17 (unknown origin)
T2 sequence (Q9ULZ9 whole entry): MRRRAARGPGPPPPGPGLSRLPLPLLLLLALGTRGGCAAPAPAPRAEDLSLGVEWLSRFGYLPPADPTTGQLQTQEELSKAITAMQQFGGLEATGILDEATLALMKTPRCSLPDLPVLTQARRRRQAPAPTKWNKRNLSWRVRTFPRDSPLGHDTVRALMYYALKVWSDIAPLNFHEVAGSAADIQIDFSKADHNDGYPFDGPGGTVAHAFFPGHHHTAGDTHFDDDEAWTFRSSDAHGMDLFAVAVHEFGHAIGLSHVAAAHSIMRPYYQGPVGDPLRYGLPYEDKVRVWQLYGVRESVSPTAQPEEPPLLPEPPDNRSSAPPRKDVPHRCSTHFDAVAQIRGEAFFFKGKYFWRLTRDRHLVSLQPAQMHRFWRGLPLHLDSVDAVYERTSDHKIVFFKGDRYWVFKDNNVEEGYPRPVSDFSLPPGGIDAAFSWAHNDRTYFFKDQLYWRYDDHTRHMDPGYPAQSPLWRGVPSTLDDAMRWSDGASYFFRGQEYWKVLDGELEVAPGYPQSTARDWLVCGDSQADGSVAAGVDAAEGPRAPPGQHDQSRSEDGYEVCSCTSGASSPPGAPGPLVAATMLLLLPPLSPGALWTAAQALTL

[4] = biological target: Macrophage metalloelastase (Homo sapiens, UniProt P39900); experiment: Inhibition of MMP12 (unknown origin)
Macrophage metalloelastase, sequence (P39900 whole entry): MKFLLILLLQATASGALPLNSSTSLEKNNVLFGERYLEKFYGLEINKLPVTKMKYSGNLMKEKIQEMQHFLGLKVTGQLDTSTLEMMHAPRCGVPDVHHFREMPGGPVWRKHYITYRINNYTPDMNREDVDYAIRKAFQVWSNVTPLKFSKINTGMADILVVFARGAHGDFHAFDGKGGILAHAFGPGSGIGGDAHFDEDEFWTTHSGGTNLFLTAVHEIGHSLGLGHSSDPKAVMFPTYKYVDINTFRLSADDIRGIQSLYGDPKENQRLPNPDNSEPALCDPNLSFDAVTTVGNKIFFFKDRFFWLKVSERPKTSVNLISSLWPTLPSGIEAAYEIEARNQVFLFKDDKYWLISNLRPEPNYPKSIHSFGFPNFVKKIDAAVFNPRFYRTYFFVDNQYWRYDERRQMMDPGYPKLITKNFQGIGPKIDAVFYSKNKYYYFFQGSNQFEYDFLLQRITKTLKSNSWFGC

Matrilysin = biological target: T3, Matrilysin (Homo sapiens, UniProt P09237); experiment: Inhibition of MMP7 (unknown origin)
T3 sequence (P09237 whole entry): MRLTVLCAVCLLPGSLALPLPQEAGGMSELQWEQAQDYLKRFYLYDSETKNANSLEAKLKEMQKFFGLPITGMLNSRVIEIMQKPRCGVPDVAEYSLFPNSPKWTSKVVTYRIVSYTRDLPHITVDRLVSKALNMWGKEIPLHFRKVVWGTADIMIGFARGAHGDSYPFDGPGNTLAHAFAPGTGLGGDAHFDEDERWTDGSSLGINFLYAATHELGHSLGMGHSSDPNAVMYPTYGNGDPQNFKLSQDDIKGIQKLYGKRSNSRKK

[5] = biological target: Matrix metalloproteinase-14 (Homo sapiens, UniProt P50281); experiment: Inhibition of MMP14 (unknown origin)

Neutrophil collagenase, sequence (P22894 whole entry): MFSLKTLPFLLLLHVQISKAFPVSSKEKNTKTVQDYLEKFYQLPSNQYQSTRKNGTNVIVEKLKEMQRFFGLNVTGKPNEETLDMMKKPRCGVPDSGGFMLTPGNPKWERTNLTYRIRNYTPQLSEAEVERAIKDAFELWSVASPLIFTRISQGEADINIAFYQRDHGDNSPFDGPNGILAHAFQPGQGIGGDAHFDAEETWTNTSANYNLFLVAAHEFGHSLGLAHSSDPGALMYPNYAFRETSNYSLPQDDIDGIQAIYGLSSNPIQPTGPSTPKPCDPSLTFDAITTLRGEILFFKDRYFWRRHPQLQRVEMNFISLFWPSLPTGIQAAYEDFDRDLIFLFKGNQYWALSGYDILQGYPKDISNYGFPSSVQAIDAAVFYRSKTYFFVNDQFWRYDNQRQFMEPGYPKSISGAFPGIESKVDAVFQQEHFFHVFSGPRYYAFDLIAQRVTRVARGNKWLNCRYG
Stromelysin-1, sequence (P08254 whole entry): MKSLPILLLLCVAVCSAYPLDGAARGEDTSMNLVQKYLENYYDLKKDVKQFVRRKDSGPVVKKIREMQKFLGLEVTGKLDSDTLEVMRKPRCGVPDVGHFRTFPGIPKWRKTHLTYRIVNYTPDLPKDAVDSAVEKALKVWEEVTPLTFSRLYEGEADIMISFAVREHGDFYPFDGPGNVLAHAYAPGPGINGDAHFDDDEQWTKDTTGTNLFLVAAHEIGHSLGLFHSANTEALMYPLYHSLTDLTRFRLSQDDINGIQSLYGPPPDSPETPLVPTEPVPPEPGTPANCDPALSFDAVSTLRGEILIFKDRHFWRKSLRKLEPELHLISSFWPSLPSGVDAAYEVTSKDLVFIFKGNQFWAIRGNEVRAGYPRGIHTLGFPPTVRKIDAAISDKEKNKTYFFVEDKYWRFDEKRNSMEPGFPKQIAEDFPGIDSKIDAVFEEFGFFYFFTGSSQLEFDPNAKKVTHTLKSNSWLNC

## O=C1N=C(O)NC(=O)[C@@]1(c1ccccc1)N1CCC(CCO)CC1
Neutrophil collagenase
  IC50: 1700 nM
Stromelysin-1
  IC50: 30000 nM

## O=C(CC1(S(=O)(=O)c2ccc(Oc3ccccc3)cc2)CCOCC1)NO
Interstitial collagenase
  Ki: 23 nM

## CC#CCOc1ccc(Oc2ccc(S(=O)(=O)NC(C(=O)NO)C(C)C)cc2)cc1 (stereo not drawn)
Interstitial collagenase
  IC50: 40 nM

## CN(C)c1ccc(-c2cn(-c3ccc(S(=O)(=O)C4(C(=O)NO)CCNCC4)cc3)nn2)cc1
[1]
  IC50: 43.9 nM
[2]
  IC50: 1.7 nM

## CC(C)N(C)c1ccc(-c2cn(-c3ccc(S(=O)(=O)C4(C(=O)NO)CCNCC4)cc3)nn2)cc1
[1]
  IC50: 346 nM
[2]
  IC50: 3 nM

## O=C(OCc1ccccc1)c1cn2c(=O)n(Cc3ccccc3)c(=O)cc2s1
[3]
  IC50: > 30000 nM
[4]
  IC50: > 30000 nM
Neutrophil collagenase
  IC50: > 30000 nM
Matrilysin
  IC50: > 30000 nM
[1]
  IC50: > 30000 nM
[5]
  IC50: > 30000 nM
Interstitial collagenase
  IC50: > 30000 nM
[2]
  IC50: > 30000 nM
Stromelysin-1
  IC50: > 30000 nM

## Cn1c(=O)n(Cc2ccc(C(=O)O)cc2)c(=O)c2cc(C#CCc3ccccc3)ccc21
[3]
  IC50: > 30000 nM
[4]
  IC50: > 30000 nM
Neutrophil collagenase
  IC50: > 30000 nM
Matrilysin
  IC50: > 30000 nM
[1]
  IC50: > 30000 nM
[5]
  IC50: > 30000 nM
Interstitial collagenase
  IC50: > 30000 nM
[2]
  IC50: > 30000 nM
Stromelysin-1
  IC50: > 30000 nM

## NC(=O)CC1CCCc2sc3nc(C(=O)NCc4ccc5c(c4)NC(=O)CO5)[nH]c(=O)c3c21 (racemic)
[4]
  IC50: > 2500 nM
Matrilysin
  IC50: > 2500 nM
[1]
  IC50: > 2500 nM
[5]
  IC50: > 2500 nM
Interstitial collagenase
  IC50: > 2500 nM
[2]
  IC50: > 2500 nM
Stromelysin-1
  IC50: > 2500 nM
